Assay results published in ChEMBL document CHEMBL1201862, “PubChem BioAssay data set” (2004).
The source made the active and inactive calls.

Tests used:
[1] = A Cell Based Secondary Assay To Explore Cytotoxicity of Compounds that Sensitize Mycobacterium Tuberculosis to Beta-Lactam Antibiotics.; type: functional
[2] = biological target: T1, Ubiquitin-conjugating enzyme E2 N (Homo sapiens, UniProt P61088); type: functional;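 note: Dose-response confirmation in a TR-FRET assay detecting UBC13-driven polyubiquitin chain formation, inhibition measured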
T1 sequence (P61088 whole entry): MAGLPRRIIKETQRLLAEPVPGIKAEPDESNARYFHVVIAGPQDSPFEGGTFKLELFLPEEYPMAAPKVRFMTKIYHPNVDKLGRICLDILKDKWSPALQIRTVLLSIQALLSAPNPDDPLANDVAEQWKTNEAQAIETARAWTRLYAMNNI

[3] = biological target: Nonstructural protein 1 (Influenza A virus, UniProt Q194T2); type: functional, Influenza A virus (A/California/07/2009(H1N1))
[4] = biological target: T2, DNA repair protein RAD52 homolog (Homo sapiens, UniProt P43351); type: functional, biochemical
T2 sequence (P43351 whole entry): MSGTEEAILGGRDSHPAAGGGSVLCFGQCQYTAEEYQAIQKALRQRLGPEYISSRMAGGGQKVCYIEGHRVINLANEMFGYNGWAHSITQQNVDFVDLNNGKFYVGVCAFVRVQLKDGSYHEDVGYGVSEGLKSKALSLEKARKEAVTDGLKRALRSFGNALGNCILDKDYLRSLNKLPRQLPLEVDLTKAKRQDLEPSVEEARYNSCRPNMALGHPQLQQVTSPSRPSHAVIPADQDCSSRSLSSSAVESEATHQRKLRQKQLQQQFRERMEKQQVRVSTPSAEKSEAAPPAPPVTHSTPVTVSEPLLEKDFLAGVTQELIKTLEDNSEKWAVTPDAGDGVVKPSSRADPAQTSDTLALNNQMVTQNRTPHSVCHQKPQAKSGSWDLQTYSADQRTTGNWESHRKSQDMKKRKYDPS

[5] = biological target: T3, Heat shock factor protein 1 (Mus musculus, UniProt P38532); test: decrease of HSF1-responsive luciferase luminescence – cell-based, NIH3T3, dose retest, confirmation (AID 2382); type: functional;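 note: NIH3T3 fibroblasts with HSF1-driven luciferase reporter stressed by proteasome inhibitor MG132; luminescence from HSF1-driven luciferase expression after 8 hours of MG132 stress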
T3 sequence (P38532 whole entry): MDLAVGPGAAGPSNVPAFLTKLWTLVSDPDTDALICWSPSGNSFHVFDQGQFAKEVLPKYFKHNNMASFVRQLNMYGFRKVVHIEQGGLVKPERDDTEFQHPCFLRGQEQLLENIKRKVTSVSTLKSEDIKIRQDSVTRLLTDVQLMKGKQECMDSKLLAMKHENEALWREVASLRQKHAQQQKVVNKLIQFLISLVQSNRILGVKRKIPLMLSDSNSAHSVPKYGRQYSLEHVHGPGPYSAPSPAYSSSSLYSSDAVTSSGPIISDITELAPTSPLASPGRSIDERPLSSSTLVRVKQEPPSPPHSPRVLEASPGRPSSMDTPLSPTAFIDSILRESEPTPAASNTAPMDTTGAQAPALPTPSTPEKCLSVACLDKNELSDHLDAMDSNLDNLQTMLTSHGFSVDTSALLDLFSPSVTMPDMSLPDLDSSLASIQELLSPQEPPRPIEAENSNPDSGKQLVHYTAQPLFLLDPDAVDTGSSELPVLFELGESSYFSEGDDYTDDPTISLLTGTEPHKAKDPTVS

[6] = NIH-3T3 fibroblast cytotoxicity, dose response, cytotoxicity control, cell-based, fluorescence, Alamar Blue, secondary assay (AID 2327); type: functional;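 note: NIH-3T3 mouse fibroblasts cultured with fluconazole at 8 µg/mL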
[7] = system: BJ; test: BJ-TERT fibroblast viability loss – cell-based, RAS-independent, luminescence, dose response (AID 1933); type: functional; details: Homo sapiens
[8] = system: BJ; test: cells; type: functional, cell-based; details: Homo sapiens
[9] = fluconazole-exposed Candida albicans growth modulators – fluorescence, retest, confirmation (AID 2467); type: functional, cell-based
[10] = system: BJ; test: BJ-TERT-LT-ST fibroblast viability loss – cell-based, RAS-independent, luminescence, dose response (AID 1935); type: functional; details: Homo sapiens;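 note: BJ fibroblasts immortalized with TERT plus LT and ST oncogenes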
[11] = DRD fibroblast viability loss – cell-based, non-viral oncogenic, luminescence, dose response (AID 1934); type: functional; details: Homo sapiens
[12] = HEK-293T viability loss after treatment – luminescence, T-cell screen hits, cytotoxicity control for TCR NF-kB inhibitor project, dose response (AID 489026); type: functional, cell-based;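 note: cells exposed to compound about 14 hours before the viability readout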
[13] = biological target: Cytochrome P450 2C9 (Homo sapiens, UniProt P11712)
[14] = A cytotoxicity screen of small molecule inhibitors of the PhoP region in Salmonella typhi identified in the primary screen. [Related pubchem assays: 1850, 1864, 1985 ]; type: functional
[15] = biological target: Cytochrome P450 3A4 (Homo sapiens, UniProt P08684);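 note: CYP3A4 tested as one member of a cytochrome P450 panel screen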
[16] = biological target: T4, Polyadenylate-binding protein 1 (Homo sapiens, UniProt P11940); test: MLLE binding blockers, Cy5 peptide tracer – biochemical, fluorescence polarization, Cy5-PAM2 peptide, secondary, miRNA deadenylation inhibitor project, dose response (AID 602260); type: functional; details: read-out: IC50_Mean
[17] = biological target: T4, Polyadenylate-binding protein 1; test: MLLE domain peptide-binding blockers, IC50 – biochemical, fluorescence polarization, FITC-PAM2 peptide, dose response (AID 602259); type: functional; details: read-out: IC50_Mean
[18] = biological target: T5, Protein skinhead-1 (Caenorhabditis elegans, UniProt P34707); type: functional
T5 sequence (P34707 whole entry): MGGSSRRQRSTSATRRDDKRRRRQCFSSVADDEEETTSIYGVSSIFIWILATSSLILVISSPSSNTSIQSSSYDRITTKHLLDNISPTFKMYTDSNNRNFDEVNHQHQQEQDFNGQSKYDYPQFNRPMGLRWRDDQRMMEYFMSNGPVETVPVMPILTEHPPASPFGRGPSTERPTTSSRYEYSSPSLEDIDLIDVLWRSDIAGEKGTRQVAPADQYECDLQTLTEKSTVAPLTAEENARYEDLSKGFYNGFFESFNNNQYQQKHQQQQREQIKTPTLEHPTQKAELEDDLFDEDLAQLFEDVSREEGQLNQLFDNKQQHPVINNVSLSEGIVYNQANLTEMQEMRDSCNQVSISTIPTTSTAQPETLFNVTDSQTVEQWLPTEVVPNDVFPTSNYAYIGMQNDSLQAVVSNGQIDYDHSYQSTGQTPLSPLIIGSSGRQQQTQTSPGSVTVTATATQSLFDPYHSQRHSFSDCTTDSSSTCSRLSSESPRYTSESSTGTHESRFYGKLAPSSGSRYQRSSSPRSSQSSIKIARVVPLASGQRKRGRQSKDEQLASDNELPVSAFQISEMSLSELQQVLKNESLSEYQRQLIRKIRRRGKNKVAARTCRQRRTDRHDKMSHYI

[19] = biological target: T6, Aminopeptidase N (Plasmodium falciparum FcB1/Columbia, UniProt O96935); test: malaria alanyl aminopeptidase activity blockers – biochemical, fluorogenic H-Leu-NHMec substrate, 1536-well (AID 1445); design: species or system Plasmodium falciparum 3D7, 3D7
T6 sequence (O96935 whole entry): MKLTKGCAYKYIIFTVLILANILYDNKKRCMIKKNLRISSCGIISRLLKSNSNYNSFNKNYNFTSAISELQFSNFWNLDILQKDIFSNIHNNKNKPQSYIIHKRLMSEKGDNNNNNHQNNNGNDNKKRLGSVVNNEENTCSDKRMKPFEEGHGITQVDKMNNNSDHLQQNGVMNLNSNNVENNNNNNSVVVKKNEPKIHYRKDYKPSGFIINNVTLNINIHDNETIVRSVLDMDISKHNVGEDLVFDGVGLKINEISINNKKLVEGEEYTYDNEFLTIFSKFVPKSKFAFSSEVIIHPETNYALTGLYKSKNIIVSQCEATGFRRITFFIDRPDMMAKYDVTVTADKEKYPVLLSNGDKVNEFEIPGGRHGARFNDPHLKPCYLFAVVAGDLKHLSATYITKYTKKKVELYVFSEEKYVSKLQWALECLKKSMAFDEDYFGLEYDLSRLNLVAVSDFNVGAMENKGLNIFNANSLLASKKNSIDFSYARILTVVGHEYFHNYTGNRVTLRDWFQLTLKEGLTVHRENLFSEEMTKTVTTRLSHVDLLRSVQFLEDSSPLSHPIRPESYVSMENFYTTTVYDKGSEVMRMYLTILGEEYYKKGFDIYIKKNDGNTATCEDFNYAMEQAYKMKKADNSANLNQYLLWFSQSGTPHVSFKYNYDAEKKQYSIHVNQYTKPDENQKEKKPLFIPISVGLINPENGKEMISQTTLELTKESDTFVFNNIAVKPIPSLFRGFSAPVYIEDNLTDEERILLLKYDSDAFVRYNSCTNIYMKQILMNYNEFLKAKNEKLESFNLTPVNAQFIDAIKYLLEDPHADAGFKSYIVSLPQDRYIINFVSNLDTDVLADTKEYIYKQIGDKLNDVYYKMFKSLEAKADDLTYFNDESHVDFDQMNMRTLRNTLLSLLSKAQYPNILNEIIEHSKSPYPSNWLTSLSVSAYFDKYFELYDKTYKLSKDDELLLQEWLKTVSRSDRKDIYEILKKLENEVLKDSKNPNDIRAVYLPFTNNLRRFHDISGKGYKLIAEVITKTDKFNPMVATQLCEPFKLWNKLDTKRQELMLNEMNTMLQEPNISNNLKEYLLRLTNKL

[20] = biological target: T7, RNA-binding protein pos-1 (Caenorhabditis elegans, UniProt G5EF15); test: disruptors of C. elegans POS-1 RNA interaction – biochemical, fluorescence polarization, dose response (AID 1964);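 note: purified POS-1 fused to maltose binding protein made in E. coli; potency of compounds blocking POS-1 binding to fluorescent RNA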
T7 sequence (G5EF15 whole entry): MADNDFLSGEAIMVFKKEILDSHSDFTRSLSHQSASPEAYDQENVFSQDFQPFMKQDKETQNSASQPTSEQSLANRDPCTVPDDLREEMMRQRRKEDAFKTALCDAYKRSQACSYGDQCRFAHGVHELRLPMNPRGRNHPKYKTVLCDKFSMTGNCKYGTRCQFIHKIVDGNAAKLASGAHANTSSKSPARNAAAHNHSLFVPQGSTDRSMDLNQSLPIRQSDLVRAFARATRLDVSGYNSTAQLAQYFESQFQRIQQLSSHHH

[21] = biological target: T8, Zinc finger protein mex-5 (Caenorhabditis elegans, UniProt Q9XUB2); test: potency of MEX-5 RNA-binding blockers – biochemical, C. elegans, fluorescence polarization, dose response (AID 1960)
T8 sequence (Q9XUB2 whole entry): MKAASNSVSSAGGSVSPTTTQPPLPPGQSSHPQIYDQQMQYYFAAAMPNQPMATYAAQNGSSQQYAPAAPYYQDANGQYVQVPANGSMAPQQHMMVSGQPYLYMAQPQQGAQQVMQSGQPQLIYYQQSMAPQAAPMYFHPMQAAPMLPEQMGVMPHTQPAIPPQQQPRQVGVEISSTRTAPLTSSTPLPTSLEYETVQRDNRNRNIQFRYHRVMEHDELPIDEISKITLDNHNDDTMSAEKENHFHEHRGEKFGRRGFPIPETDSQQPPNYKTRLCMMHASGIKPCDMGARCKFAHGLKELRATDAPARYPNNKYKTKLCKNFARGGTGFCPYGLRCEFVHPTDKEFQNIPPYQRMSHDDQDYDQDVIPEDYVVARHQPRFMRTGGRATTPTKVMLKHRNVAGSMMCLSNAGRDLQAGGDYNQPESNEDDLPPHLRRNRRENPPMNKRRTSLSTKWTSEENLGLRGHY

[22] = biological target: Prothrombin (Homo sapiens, UniProt P00734); test: Thrombin 1536 HTS Dose Response Confirmation. [Related pubchem assays: 1046 (Thrombin 1536 HTS; hits were confirmed in this assay)]; type: functional

Sequence of Cytochrome P450 2C9 (P11712 whole entry): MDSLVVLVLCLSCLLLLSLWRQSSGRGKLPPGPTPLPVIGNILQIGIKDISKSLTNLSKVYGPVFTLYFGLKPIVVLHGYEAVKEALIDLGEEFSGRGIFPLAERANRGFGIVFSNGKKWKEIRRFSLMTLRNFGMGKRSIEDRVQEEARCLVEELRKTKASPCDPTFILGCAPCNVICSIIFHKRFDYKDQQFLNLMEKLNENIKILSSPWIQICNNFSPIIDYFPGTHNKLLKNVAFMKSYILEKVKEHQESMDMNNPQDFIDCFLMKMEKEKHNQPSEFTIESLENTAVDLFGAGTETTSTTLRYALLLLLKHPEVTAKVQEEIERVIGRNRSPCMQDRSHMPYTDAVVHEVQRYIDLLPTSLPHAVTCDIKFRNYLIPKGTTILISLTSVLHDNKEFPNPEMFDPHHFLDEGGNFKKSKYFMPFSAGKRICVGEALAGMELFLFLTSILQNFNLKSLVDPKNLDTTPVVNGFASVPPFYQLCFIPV
Sequence of Nonstructural protein 1 (Q194T2 whole entry): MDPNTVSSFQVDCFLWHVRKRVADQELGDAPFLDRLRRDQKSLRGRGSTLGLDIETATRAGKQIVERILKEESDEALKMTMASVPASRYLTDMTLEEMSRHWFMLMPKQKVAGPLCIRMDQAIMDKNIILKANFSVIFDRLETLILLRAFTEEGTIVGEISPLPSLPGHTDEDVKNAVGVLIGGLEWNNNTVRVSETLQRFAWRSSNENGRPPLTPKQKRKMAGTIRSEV
T4 sequence (P11940 whole entry, the tested form may be a part): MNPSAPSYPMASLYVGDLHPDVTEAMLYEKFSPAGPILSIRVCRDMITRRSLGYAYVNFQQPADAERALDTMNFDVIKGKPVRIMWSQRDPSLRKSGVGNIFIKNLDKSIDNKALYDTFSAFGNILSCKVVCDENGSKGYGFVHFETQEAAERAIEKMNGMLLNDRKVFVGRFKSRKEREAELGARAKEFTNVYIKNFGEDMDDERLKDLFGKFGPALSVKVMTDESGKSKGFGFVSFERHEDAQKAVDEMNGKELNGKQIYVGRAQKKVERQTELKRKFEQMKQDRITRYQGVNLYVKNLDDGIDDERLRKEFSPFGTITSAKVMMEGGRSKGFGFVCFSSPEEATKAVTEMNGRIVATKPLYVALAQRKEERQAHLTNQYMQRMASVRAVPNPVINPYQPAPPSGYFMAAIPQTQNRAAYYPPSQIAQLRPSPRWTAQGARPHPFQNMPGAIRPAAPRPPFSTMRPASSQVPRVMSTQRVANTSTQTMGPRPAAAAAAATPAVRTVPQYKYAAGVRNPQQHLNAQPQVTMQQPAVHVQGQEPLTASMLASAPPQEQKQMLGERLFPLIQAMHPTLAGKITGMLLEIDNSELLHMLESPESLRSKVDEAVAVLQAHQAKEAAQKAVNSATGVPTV
Sequence of Cytochrome P450 3A4 (P08684 whole entry): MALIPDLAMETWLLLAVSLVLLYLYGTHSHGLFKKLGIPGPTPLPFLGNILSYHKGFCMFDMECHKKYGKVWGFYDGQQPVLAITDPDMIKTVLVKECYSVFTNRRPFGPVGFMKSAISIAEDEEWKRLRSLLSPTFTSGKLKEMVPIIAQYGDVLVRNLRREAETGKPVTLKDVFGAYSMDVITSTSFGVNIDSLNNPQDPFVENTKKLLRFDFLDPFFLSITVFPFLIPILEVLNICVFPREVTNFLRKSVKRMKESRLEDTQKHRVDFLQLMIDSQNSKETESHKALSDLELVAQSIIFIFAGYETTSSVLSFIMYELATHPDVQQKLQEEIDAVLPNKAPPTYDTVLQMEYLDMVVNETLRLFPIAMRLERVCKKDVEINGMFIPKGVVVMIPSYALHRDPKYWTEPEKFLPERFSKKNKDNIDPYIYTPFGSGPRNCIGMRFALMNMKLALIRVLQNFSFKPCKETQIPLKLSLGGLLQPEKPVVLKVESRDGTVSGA

Cc1ccc(Cn2c(C(C)Nc3nc(-c4ccc(Cl)cc4)cs3)nc3cc(C(=O)NCCCO)ccc32)cc1 (stereo not given)
CC50 [1]: > 40 µM (active)

COc1ccc2nc(SCC(=O)N3CCCCCC3)c(C#N)cc2c1
CC50 [1]: > 40 µM (active)

CN1CCC(CN)(N2CCN(c3ccccc3)CC2)CC1
IC50 [2]: > 20 µM (inactive) | IC50 [3]: > 100 µM (active) | AC50 [4]: 23.1 µM (active)

O=C(Oc1c(-c2ccccc2Cl)oc2ccccc2c1=O)c1ccc(Cl)cc1
CC50 [1]: > 40 µM (active) | EC50 [5]: > 195 µM (not active)

COc1ccc(-[n+]2c(-c3ccccc3)cc(-c3ccc(C)cc3)cc2-c2ccccc2)cc1.[O-][Cl+3]([O-])([O-])[O-]
EC50 [6]: 7.59 µM (active) | EC50 [7]: 3.39 µM (active) | EC50 [8]: 5 µM (active) | EC50 [9]: 0.037 µM (active) | EC50 [10]: 19.8 µM (active) | EC50 [11]: 10 µM (inconclusive) | IC50 [12]: > 80 µM (inactive)

COc1ccc(OC)c(C(=O)CN2C(=O)NC(C)(c3ccccc3)C2=O)c1 (stereo not given)
AC50 [13]: inconclusive

COc1ccc(CNS(=O)(=O)c2cc(-c3cc(C)no3)ccc2C(C)C)cc1
IC50 [12]: > 80 µM (inactive)

Cc1ccc(CNC(=O)C2CC(c3ccccc3[N+](=O)[O-])=NO2)cc1 (stereo not given)
AC50 [13]: inconclusive

Cc1ccc(CN2C3=NCCN3c3ccccc32)cc1
EC50 [14]: > 50 µM (active)

Cc1c(/C=N/NC(=O)c2ccc3c(c2)OCO3)cnn1C
EC50 [14]: > 50 µM (active) | AC50 [15]: 22.4 µM (inconclusive)

COc1ccccc1CNCCc1ccc(F)cc1
EC50 [14]: > 50 µM (active)

Cc1cc2cc(CN=C(S)Nc3ccc(OC(F)(F)F)cc3)ccc2n1C
IC50 [3]: > 100 µM (active) | IC50 [16]: > 66 µM (inactive) | IC50 [17]: > 66 µM (inactive) | IC50 [18]: > 100 µM (inactive)

COc1cccc(C(=O)Nc2cccc(SC)c2)c1
EC50 [14]: > 50 µM (active)

O=C(O)Cn1c(=O)c2c3c(sc2n(Cc2ccccc2F)c1=O)CCCC3
EC50 [14]: > 50 µM (active)

CCOc1cc(C(c2c(C)n[nH]c2O)c2c(C)n[nH]c2O)cc([N+](=O)[O-])c1O
EC50 [14]: > 50 µM (active)

O=C(/C=C/c1cccnc1)c1ccc(O)cc1
CC50 [1]: 17.5 µM (active)

CCOc1cccc(/C=N/Nc2nc(N3CCCC3)nc(N3CCCC3)n2)c1O
CC50 [1]: > 40 µM (active)

O=C(NCC(c1ccco1)N1CCc2ccccc21)c1ccc([N+](=O)[O-])cc1 (stereo not given)
CC50 [1]: > 40 µM (active)

O=C1NC(=O)N(CCc2ccccc2)C(=O)/C1=C/NNC(=O)c1ccncc1
IC50 [19]: 38.4 µM (active) | EC50 [20]: > 300 µM (not active) | EC50 [21]: > 300 µM (not active) | IC50 [22]: > 50 µM (not active)
